# Columns and labels:
# Test in all cases: TMT LC-MSMS of 11-labelled proteins
# Type in all cases: cell-based
# Serum albumin (ALB) = Serum albumin (ALB) (Homo sapiens, UniProt P02768)
# [1] = target: elongation factor Tu, mitochondrial (TUFM) (Homo sapiens, UniProt P49411)
# [2] = target: T1, heat shock protein 75 kDa, mitochondrial (TRAP1) (Homo sapiens, UniProt Q12931)
# T1 sequence (Q12931 60-704): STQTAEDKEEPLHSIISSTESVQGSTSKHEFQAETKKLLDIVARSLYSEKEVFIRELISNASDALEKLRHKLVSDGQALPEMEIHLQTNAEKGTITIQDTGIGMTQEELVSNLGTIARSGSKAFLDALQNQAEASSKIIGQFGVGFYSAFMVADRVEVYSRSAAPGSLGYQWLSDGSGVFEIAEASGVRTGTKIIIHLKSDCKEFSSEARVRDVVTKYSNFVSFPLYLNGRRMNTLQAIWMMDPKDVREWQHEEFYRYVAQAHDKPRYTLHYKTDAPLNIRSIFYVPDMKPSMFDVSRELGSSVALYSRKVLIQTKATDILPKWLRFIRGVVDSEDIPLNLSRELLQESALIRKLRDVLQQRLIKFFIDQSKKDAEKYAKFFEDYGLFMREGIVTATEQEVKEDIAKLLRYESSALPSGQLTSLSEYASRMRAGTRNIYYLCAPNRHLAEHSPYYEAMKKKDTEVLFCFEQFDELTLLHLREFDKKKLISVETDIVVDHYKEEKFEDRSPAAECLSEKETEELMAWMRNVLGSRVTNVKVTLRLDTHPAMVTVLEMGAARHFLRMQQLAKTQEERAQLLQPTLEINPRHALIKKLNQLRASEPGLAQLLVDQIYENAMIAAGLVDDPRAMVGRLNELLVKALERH
# [3] = target: puromycin-sensitive aminopeptidase (NPEPPS) (Homo sapiens, UniProt P55786)
# [4] = sheet Exp1, SKBR3 cells, 11 0.5 µM 3 h vs DMSO
# [5] = sheet Exp1, SKBR3 cells, 11 0.5 µM 3 h vs with PU-H71 10 µM
# [6] = sheet Merged, SKBR3 cells, 11 0.5 µM 3 h vs DMSO
# [7] = sheet Merged, SKBR3 cells, 11 0.5 µM 3 h vs with PU-H71 10 µM
# Sequence of Serum albumin (ALB) (P02768 25-609): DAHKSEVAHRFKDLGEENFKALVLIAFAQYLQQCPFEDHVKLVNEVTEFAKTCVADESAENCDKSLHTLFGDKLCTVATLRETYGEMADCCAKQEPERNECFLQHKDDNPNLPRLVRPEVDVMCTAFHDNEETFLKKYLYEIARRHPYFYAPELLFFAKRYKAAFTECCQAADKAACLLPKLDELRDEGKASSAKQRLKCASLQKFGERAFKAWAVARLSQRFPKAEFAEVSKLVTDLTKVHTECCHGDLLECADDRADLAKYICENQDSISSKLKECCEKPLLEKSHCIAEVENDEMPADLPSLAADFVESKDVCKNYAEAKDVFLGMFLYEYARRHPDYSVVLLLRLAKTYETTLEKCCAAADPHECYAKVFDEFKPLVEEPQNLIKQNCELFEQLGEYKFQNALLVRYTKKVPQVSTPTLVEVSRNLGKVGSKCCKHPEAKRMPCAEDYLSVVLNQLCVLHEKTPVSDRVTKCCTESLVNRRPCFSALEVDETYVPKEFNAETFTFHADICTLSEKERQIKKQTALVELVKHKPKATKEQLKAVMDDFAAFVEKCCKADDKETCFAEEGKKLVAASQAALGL
# Sequence of puromycin-sensitive aminopeptidase (NPEPPS) (P55786 whole entry): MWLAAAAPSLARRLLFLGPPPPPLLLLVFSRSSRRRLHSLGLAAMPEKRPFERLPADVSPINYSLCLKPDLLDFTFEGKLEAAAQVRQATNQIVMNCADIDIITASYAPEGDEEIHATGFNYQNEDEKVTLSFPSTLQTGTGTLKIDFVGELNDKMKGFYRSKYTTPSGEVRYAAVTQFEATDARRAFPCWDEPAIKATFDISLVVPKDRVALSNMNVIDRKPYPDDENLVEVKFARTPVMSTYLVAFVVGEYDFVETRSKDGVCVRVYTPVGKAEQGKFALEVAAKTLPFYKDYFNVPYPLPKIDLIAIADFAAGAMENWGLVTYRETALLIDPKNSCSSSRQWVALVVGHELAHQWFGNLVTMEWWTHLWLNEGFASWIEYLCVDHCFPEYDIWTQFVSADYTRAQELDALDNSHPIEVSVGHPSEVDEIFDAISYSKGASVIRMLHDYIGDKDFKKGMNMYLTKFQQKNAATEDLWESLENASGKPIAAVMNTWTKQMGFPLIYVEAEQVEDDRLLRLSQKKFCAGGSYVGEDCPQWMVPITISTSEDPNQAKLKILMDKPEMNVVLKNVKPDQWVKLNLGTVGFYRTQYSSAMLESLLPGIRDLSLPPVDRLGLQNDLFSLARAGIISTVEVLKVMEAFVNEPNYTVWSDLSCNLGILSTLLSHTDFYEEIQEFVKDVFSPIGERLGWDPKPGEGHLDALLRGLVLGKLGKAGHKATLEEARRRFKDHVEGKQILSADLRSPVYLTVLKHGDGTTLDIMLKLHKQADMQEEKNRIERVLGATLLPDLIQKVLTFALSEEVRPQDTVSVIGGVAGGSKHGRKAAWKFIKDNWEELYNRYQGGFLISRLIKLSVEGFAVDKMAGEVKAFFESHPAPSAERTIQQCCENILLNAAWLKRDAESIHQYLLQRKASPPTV
structure (smiles),measurement,setting,value
CC(=O)Oc1ccc2c(c1)Oc1cc(OC(C)=O)ccc1C21OC(=O)c2cc(C(=O)NCCOCCOCCNC(=O)CCCC(=O)N(CC#N)S(=O)(=O)c3ccc(C(=O)NCCCn4c(Sc5cc6c(cc5I)OCO6)nc5c(N)ncnc54)cc3)ccc21 [compound 11],Abundance Ratio: (11) / (11 with PU-H71),"Serum albumin (ALB); Exp3, ALB",0.706
same,Abundance Ratio: (11) / (DMSO),"Serum albumin (ALB); Exp3, ALB",1.152
same,Abundances (Grouped): 11,"Serum albumin (ALB); Exp3, ALB",132.6
same,Abundances (Grouped): 11 with PU-H71,"Serum albumin (ALB); Exp3, ALB",187.7
same,Abundance Ratio: (11) / (DMSO),Serum albumin (ALB); [4],0.969
same,Abundance Ratio: (11) / (11 with PU-H71),Serum albumin (ALB); [5],0.846
same,Abundance Ratio: (11) / (11 with PU-H71),"Serum albumin (ALB); sheet Exp2, ALB",0.796
same,Abundance Ratio: (11) / (DMSO),"Serum albumin (ALB); sheet Exp2, ALB",0.967
same,Abundances (Grouped): 11,"Serum albumin (ALB); sheet Exp2, ALB",219.9
same,Abundances (Grouped): 11 with PU-H71,"Serum albumin (ALB); sheet Exp2, ALB",276.3
same,Abundance Ratio: (11) / (DMSO),Serum albumin (ALB); [6],0.969
same,Abundance Ratio: (11) / (11 with PU-H71),Serum albumin (ALB); [7],0.846
same,Abundance Ratio: (11) / (11 with PU-H71),"[1]; sheet Exp2, TUFM",1.006
same,Abundance Ratio: (11) / (DMSO),"[1]; sheet Exp2, TUFM",2.039
same,Abundances (Grouped): 11,"[1]; sheet Exp2, TUFM",67.3
same,Abundances (Grouped): 11 with PU-H71,"[1]; sheet Exp2, TUFM, with PU-H71",66.9
same,Abundance Ratio: (11) / (DMSO),[1]; [6],2.024
same,Abundance Ratio: (11) / (11 with PU-H71),[1]; [7],0.818
same,Abundance Ratio: (11) / (11 with PU-H71),"[2]; Exp3, TRAP1",0.787
same,Abundance Ratio: (11) / (DMSO),"[2]; Exp3, TRAP1",2.947
same,Abundances (Grouped): 11,"[2]; Exp3, TRAP1",28
same,Abundances (Grouped): 11 with PU-H71,"[2]; Exp3, TRAP1, with PU-H71",35.6
same,Abundance Ratio: (11) / (DMSO),[2]; [6],2.947
same,Abundance Ratio: (11) / (11 with PU-H71),[2]; [7],0.787
same,Abundance Ratio: (11) / (11 with PU-H71),"[3]; Exp3, NPEPPS",0.586
same,Abundance Ratio: (11) / (DMSO),"[3]; Exp3, NPEPPS",3.067
same,Abundances (Grouped): 11,"[3]; Exp3, NPEPPS",616.5
same,Abundances (Grouped): 11 with PU-H71,"[3]; Exp3, NPEPPS",1052.4
same,Abundance Ratio: (11) / (DMSO),[3]; [4],3.569
same,Abundance Ratio: (11) / (11 with PU-H71),[3]; [5],0.575
same,Abundance Ratio: (11) / (11 with PU-H71),"[3]; sheet Exp2, NPEPPS",0.592
same,Abundance Ratio: (11) / (DMSO),"[3]; sheet Exp2, NPEPPS",3.192
same,Abundances (Grouped): 11,"[3]; sheet Exp2, NPEPPS",968.9
same,Abundances (Grouped): 11 with PU-H71,"[3]; sheet Exp2, NPEPPS",1636.1
same,Abundance Ratio: (11) / (DMSO),[3]; [6],3.569
same,Abundance Ratio: (11) / (11 with PU-H71),[3]; [7],0.575
